In patent US20060223763A1, “C-glycoside compounds for stimulating the synthesis of glycosaminoglycans” (L'OREAL S.A., priority 2000, published 2006):
Values joined by “and” are separate entries in the source; they are usually repeats but may differ in a detail not shown here. Identical values can stand only once.

System: normal human dermal fibroblast cultures
Assay: incorporation of radioactive glucosamine into the matrix neosynthesized by fibroblast cultures (GAG/hyaluronic acid synthesis)
Format: cell-based
Description: The study was performed by measuring the incorporation of radioactive glucosamine into the matrix neosynthesized by normal human dermal fibroblast cultures. The incorporation of radioactive glucosamine indicated a specific neosynthesis of glycosaminoglycans via incorporation of the acetylated form of this glucosamine.
The fibroblast cultures were prepared according to the standard methods of cell culturing, i.e., in MEM/M199 medium sold by Gibco, in the presence of sodium bicarbonate (1.87 mg/ml), L-glutamine (2 mM), penicillin (50 IU/ml) and 10% foetal calf serum (Gibco).
The test was performed on a cell culture at 80% confluence, on 96-well plates. The C-glycoside derivative at concentrations of 0.1 to 30 mM was placed in contact with the cells for 48 hours. Labeling with radioactive glucosamine (D-[6-H^3]-glucosamine, Amersham TRK398 (814 Gbq/mmol, 22 Ci/mmol)) was performed for 24 hours.
The level of radioactive glucosamine incorporated was measured at the end of the test by adsorption of the anionic molecules onto Q-sepharose beads followed by desorption of the sparingly and moderately anionic molecules with 6M urea plus 0.2M NaCl. Once washed, the radioactivity incorporated into the highly cationic molecules remaining on the support was counted.
The results were evaluated relative to a control consisting of cells that have not been treated with the C-glycoside derivative of formula (I).
A positive control (TGFβ at 10 ng/ml) known to stimulate GAG synthesis was introduced into the test as positive reference.

[1] = 0.1 mM, 48 hours contact, labeling 24 hours
[2] = 0.3 mM, 48 hours contact, labeling 24 hours
[3] = 1 mM, 48 hours contact, labeling 24 hours
[4] = concentrations of 0.3, 1 and 3 mM
[5] = 3 mM, 48 hours contact, labeling 24 hours
[6] = 0.4 mM, 48 hours contact, labeling 24 hours
[7] = 2 mM, 48 hours contact, labeling 24 hours
[8] = 10 mM, 48 hours contact, labeling 24 hours
[9] = 0.5 mM, 48 hours contact, labeling 24 hours
[10] = TGFβ at 10 ng/ml, positive control, two values given

Compound	% (relative to untreated control) [1] [%]	VALUE (radioactive glucosamine incorporated) [1] [cpm]	% (relative to untreated control) [2] [%]	VALUE (radioactive glucosamine incorporated) [2] [cpm]	% (relative to untreated control) [3] [%]	VALUE (radioactive glucosamine incorporated) [3] [cpm]	effect on incorporation of radioactive glucosamine [4]	further results
O=C(C[C@@H]1OC[C@@H](O)[C@H](O)[C@H]1O)c1ccccc1 [1-Phenyl-2-(C-β-D-Xylopyranoside)Ethan-1-One]	120	10113	102	8545	95	7941	stimulate the incorporation of radioactive glucosamine	–
CC(C[C@@H]1OC[C@@H](O)[C@H](O)[C@H]1O)NCCCO (stereo partly drawn) [1-[2-(3-Hydroxypropylamio)Propyl]-C-β-D-Xylopyranose]	110	11656	109	11585	140	14832	stimulate the incorporation of radioactive glucosamine	–
CC(O)C[C@@H]1OC[C@@H](O)[C@H](O)[C@H]1O (stereo partly drawn) [C-β-D-Xylopyranoside-2-hydroxypropane, C-β-D-xylopyranoside-2-hydroxypropane]	–	–	139	11634	169	14209	–	% (relative to untreated control) [5]: 218%; VALUE (radioactive glucosamine incorporated) [5]: 18271 cpm; effect on incorporation of radioactive glucosamine (concentrations of 0.1, 0.3 and 1 mM): stimulates the incorporation of radioactive glucosamine
CC(=O)C[C@@H]1OC[C@@H](O)[C@H](O)[C@H]1O [C-β-D-Xylopyranoside-n-propan-2-one, C-β-D-xylopyranoside-n-propan-2-one]	–	–	–	–	–	–	–	% (relative to untreated control) [6]: 141%; VALUE (radioactive glucosamine incorporated) [6]: 8564 cpm; % (relative to untreated control) [7]: 131%; VALUE (radioactive glucosamine incorporated) [7]: 11014 cpm; % (relative to untreated control) [8]: 161%; VALUE (radioactive glucosamine incorporated) [8]: 12507 cpm and 9811 cpm; effect on incorporation of radioactive glucosamine (concentrations of 0.4, 2 and 10 mM): stimulates the incorporation of radioactive glucosamine
O=C[C@H](O)[C@@H](O)[C@H](O)CO [D-Xylose, reference compound]	102	6586	–	–	–	–	–	% (relative to untreated control) [9]: 86%; VALUE (radioactive glucosamine incorporated) [9]: 4063 cpm
TGFβ: positive control (TGFβ at 10 ng/ml) known to stimulate GAG synthesis	–	–	–	–	–	–	–	% (relative to untreated control) [10]: 348% and 454%; VALUE (radioactive glucosamine incorporated) [10]: 27124 cpm and 34865 cpm
